Laboratory results reported in US8232308B2, “Methods for treating a disease in which Rho kinase is involved” (UBE Industries, Ltd., priority 2003, dated 2012).

Key:
[1] = target: T1, activated ROCK II (Rattus norvegicus, UniProt Q62868); experiment: Test for Evaluation of Inhibiting Activity to Rho Kinase; format: biochemical; conditions: S6 Kinase Substrate Peptide, [γ-32P]ATP, 30° C. for 15 minutes, Ki=IC50/(1+S/Km)
T1 construct: purchased Upstate Biotechnology 14-338
T1 sequence (Q62868 11-550 limits assumed): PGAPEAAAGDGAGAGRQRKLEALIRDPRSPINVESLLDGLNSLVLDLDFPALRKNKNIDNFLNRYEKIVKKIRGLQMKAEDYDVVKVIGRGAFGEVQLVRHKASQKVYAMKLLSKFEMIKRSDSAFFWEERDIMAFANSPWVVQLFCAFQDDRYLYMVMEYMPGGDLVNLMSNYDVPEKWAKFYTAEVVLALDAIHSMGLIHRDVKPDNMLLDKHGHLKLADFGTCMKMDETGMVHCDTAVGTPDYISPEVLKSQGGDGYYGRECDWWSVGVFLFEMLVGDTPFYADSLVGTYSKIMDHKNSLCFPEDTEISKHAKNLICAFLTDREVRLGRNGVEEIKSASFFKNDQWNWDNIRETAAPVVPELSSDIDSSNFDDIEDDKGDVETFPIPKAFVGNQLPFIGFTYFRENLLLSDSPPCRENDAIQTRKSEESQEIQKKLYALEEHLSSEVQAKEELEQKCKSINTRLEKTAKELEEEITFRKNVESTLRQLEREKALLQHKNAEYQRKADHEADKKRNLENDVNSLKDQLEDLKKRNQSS

CC(C)(N)c1ccc(-c2ccc3[nH]ncc3c2OCC2CC2)nc1.Cl.Cl.Cl [Compound 5-73, 5-[5-(1-Amino-1-methylethyl)pyridin-2-yl]-4-cyclo-propylmethyloxy-1H-indazole trihydrochloride]
Ki [1]: 146 nM
melting point: 270 to 272 °C (dec.)

CC(C)(C)OC(=O)NC(C)(C)c1ccc(-c2ccc3nn(C4CCCCO4)cc3c2-c2cc[nH]n2)cc1 (stereo not drawn) [Compound 30, 5-[4-(1-tert-butoxycarbonylamino-1-methylethyl)phenyl]-4-(pyrazol-3-yl)-2-(tetrahydropyran-2-yl)-2H-indazole]
melting point: 99 to 105 °C
